Test results reported in patent US20240417359A1, “PRECURSORS OF PHENOLIC FRAGRANT COMPOUNDS” (GIVAUDAN SA, priority 2021, published 2024).

Experiment: Odour description on paper blotter
Settings: 1% solution in EtOH on paper blotter, 24 h

1-(dec-1-en-4-yloxy)-2-ethoxy-4-methylbenzene and 2-(dec-1-en-4-yloxy)-1-ethoxy-4-methylbenzene [Example 46]
Odour description: medicinal, phenolic, vanilla

CCCCCC[C@@H](C/C=C\CCCCCCCC(=O)OC)Oc1cc(C)c(C(=O)OC)c(O)c1C [Example 3, methyl (S,Z)-2-hydroxy-4-((18-methoxy-18-oxooctadec-9-en-7-yl)oxy)-3,6-dimethylbenzoate]
Odour description: powdery mossy, evernyl, green, fatty

CCCCCCC(CC=C(C)C)Oc1ccc(C=O)cc1OCC (stereo not drawn) [Example 4, 3-ethoxy-4-((2-methylundec-2-en-5-yl)oxy)benzaldehyde]
Odour description: vanilla (powdery, creamy) dry (dough)

C=CCC(Oc1ccc(CCC(C)=O)cc1)C(C)=CCC (stereo not drawn) [Example 5, 4-(4-((5-methylocta-1,5-dien-4-yl)oxy)phenyl)butan-2-one]
Odour description: fruity (powdery, sweet, raspberry)

C=CCC(Oc1ccc(C=CC)cc1OC)C(C)=CCC (stereo not drawn) [Example 6, 2-methoxy-1-((5-methylocta-1,5-dien-4-yl)oxy)-4-(prop-1-en-1-yl)benzene]
Odour description: woody (smokey, cedarwood, pyrogravure)

C=CCC(Oc1cc(C)c(C(=O)OC)c(O)c1C)C(C)=CCC (stereo not drawn) [Example 7, methyl 2-hydroxy-3,6-dimethyl-4-((5-methylocta-1,5-dien-4-yl)oxy)benzoate]
Odour description: powdery (evernyl)

C=CCC(Oc1ccc(CCC(C)=O)cc1)c1ccccc1 (stereo not drawn) [Example 8, 4-(4-((1-phenylbut-3-en-1-yl)oxy)phenyl)butan-2-one]
Odour description: fruity (powdery, sweet, raspberry)

CCCCCCC=CC=CCC(CCCCCC)Oc1ccc(CCC(C)=O)cc1 (stereo not drawn) [Example 9, 4-(4-((octadeca-9,11-dien-7-yl)oxy)phenyl)butan-2-one]
Odour description: powdery fruity raspberry

CCCCCCC(CC=CCC(CCCCCC)Oc1ccc(CCC(C)=O)cc1)Oc1ccc(CCC(C)=O)cc1 (stereo not drawn) [Example 10, 4,4′-((octadec-9-ene-7,12-diylbis(oxy))bis(4,1-phenylene))bis(butan-2-one)]
Odour description: powdery fruity raspberry

C=CCC(Oc1ccc(C=O)cc1OCC)C(C)=CCC (stereo not drawn) [Example 11, 3-ethoxy-4-((5-methylocta-1,5-dien-4-yl)oxy)benzaldehyde]
Odour description: powdery (vanilla)

C=CCC(C/C=C\CC)Oc1ccc(C=CC)cc1OC (stereo not drawn) [Example 13, 2-methoxy-1-(((Z)-nona-1,6-dien-4-yl)oxy)-4-(prop-1-en-1-yl)benzene]
Odour description: creamy, vanilla

C=C(C)[C@@H]1CC[C@@H](C)C[C@@H]1Oc1ccc(CCC(C)=O)cc1 [Example 14, 4-(4-(((1S,2S,5R)-5-methyl-2-(prop-1-en-2-yl)cyclohexyl)oxy)phenyl)butan-2-one]
Odour description: sweet fruity (raspberry)

CCCCCC(CC=Cc1ccccc1)Oc1ccc(C=O)cc1OCC (stereo not drawn) [Example 15, 3-ethoxy-4-((1-phenylnon-1-en-4-yl)oxy)benzaldehyde]
Odour description: powdery (vanilla)

CCOc1cc(C=O)ccc1OC(C)(C)CC=C=C(C)C [Example 16, 4-((2,6-dimethylhepta-4,5-dien-2-yl)oxy)-3-ethoxybenzaldehyde]
Odour description: powdery (vanilla)

CCOc1cc(C=O)ccc1OC(C)(C)CC=C=C(C)CCC=C(C)C [Example 18, 3-ethoxy-4-((2,6,10-trimethylundeca-4,5,9-trien-2-yl)oxy)benzaldehyde]
Odour description: vanilla powdery

CC/C=C/CC(CCC)Oc1ccc(C=O)cc1OCC (stereo not drawn) [Example 19, (E)-3-ethoxy-4-(non-6-en-4-yloxy)benzaldehyde]
Odour description: vanilla powdery creamy

CCOc1cc(C=O)ccc1OCC/C=C(\C)CC/C=C(\C)CCC=C(C)C [Example 20, 3-ethoxy-4-(((3E,7E)-4,8,12-trimethyltrideca-3,7,11-trien-1-yl)oxy)benzaldehyde]
Odour description: vanilla (powdery, creamy, chocolate, gourmand)

CC=CCC(C)(Cc1ccccc1)Oc1ccc(C=O)cc1OCC (stereo not drawn) [Example 21, 3-ethoxy-4-((2-methyl-1-phenylhex-4-en-2-yl)oxy)benzaldehyde]
Odour description: powdery (vanilla) creamy (milky)
